# Reference: US5380834A, “Immuno-suppressive agent” (Ishihara Sangyo Kaisha Ltd., priority 1992, dated 1995)
# Experiments:
# [1] = tested on: murine mixed lymphocyte reaction (spleen cells of BALB/c and C57BL/6 mice); test: Effects on the murine mixed lymphocyte reaction (3H-TdR uptake); type: cell-based; conditions: Mus musculus, BALB/c + C57BL/6 spleen cells, 48 hours, read-out: IC50 value, b (murine mixed lymphocyte reaction)
# Experimental: Using spleen cells of BALB/c and C57BL/6 mice, the effect of the compound of the formula (I) on the murine mixed lymphocyte reaction in both sides, was studied. Namely, spleen cells of both types of mice were mixed in an equal amount of 5×10^5 cells each, and the mixed cells were cultured together with the compound of the formula (I) for 48 hours on a microplate with 96 wells by a 10% FCS-RPMI solution (in an incubator, 5% CO2, at 37° C.). Then, 0.5 μCi of ^3 H-TdR was added thereto, and the mixture was further cultured for from 16 to 18 hours. Then, cells were collected by a cell harvester, and the radioactivity (dpm) of ^3 H-TdR uptaken into the cells, was measured. Such measured amounts of ^3 H-TdR uptaken into the cells were used as indices for the mixed lymphocyte reaction, and the radioactivity at each concentration (from 0.001 to 1,000 μg/ml) of the compound of the formula (I) was compared with the non-treated control value, to calculate the Ic50 value.
# For the basic procedure for this test, reference was made to Selected methods in cellular immunology, p. 147-149 (translated by Katsuyuki Imai et al., published by Rikogakusha, (1982)).
# [2] = tested on: IgE antibody production from murine spleen B cells; test: Effects on the IgE antibody production from murine spleen cells (LPS + IL4); type: cell-based, BALB/c mouse; conditions: Mus musculus, B-cell, 168 h; spleen B cells, LPS 10 μg/ml, IL4 100 U/ml, 7 days, enzyme-immunoassay; read-out: IC50 value, IgE antibody production
# Experimental: (§1) Using murine spleen B cells, the effects of the compound of the formula (I) on the IgGl, IgM and IgE antibody production induced by the stimulation by LPS (lipopolysaccharide; Product No. 520.02051, manufactured by Wako Junyaku) and IL4 (interleukin 4), were studied. Namely, spleen cells of a BALB/c mouse were treated with a murine anti-Thy-1 antibody (obtained from Chiba University) and a rabbit complement (Product No. 3051, manufactured by cedarlane) to remove T cells, and 3×10^5 spleen B cells were cultured for 7 days together with 10 μg/ml of LPS, 100 U/ml of mouse-recombinant IL4 (Product No. MIL-4C, manufactured by Genzyme) and each concentration (from […]) of the compound of the formula (I) on a microplate with 96 wells by a 10% FCS-RPMI solution (in an incubator, 5% CO2, at 37° C.).
# (§2) For the basic procedure of this test, reference was made to The Journal of Immunology, Vol. 136, p. 4538, (1986).
# (§3) The amount of each antibody in the cell culture supernatant hereby obtained, was measured by the following enzyme-immunoassay. Firstly, on a microplate with 96 wells, 1 μg/ml of a rabbit anti-mouse IgGl antibody (Product No. 36243, manufactured by Cappel), 1 μg/ml of a goat anti-mouse IgM antibody (Product No. 0611-0201, manufactured by Cappel) or 10 μg/ml of a rat anti-mouse IgE monoclonal antibody (Product No. LO-ME-2, manufactured by Experimental Immunology) was coated (50 μl/well, at room temperature for 60 minutes), and then a nonspecific bond was blocked by a 0.1% bovine serum albumin-containing 10 mM sodium phosphate buffer (pH 7.2) (at room temperature for 60 minutes). Then, the above-mentioned cell culture supernatant or its diluted solution was added in an amount of 50 μl/well and reacted at room temperature for 60 minutes. Further, an alkaline phosphatase-labeled rabbit anti-mouse IgGl antibody (Product No. 61-0122, manufactured by Zymet) diluted 1,000 times, an alkaline phosphatase-labeled rabbit anti-mouse IgM antibody (Product No. 61-6822, manufactured by Zymet) diluted 2,000 times, or an alkaline phosphatase-labeled goat anti-mouse IgE antibody (Product No. PA-284, manufactured by Binding Site) diluted 500 times was added in an amount of 50 μl/well and reacted at room temperature for 60 minutes. 100 μl/well of a 10% diethanol amine buffer solution (pH 9.8) containing p-nitrophenyl phosphate as an enzyme substrate, was reacted, and the absorbance at 405 nm was measured. The amount of each antibody was calculated from the calibration curve of each standard antibody, and the IC50 value of the compound of the formula (I) on the antibody production was calculated using as the control value a value obtained in the absence of the compound of the formula (I).
# [3] = tested on: IgGl antibody production from murine spleen B cells; test: Effects on the IgGl antibody production from murine spleen cells (LPS + IL4); type: cell-based, BALB/c mouse; conditions: Mus musculus, B-cell, 168 h; spleen B cells, LPS 10 μg/ml, IL4 100 U/ml, 7 days, enzyme-immunoassay; read-out: IC50 value, IgGl antibody production
# Experimental: as §1, §2, §3
# murine bone mallow cells = test: Effects on the murine bone mallow cells (proliferation, 3H-TdR uptake); type: cell-based, BALB/c mouse; conditions: Mus musculus, bone marrow cells; 20% L929 culture supernatant, 48 hours, 3H-TdR uptake; Tables 12-15; read-out: IC50 value, c (murine bone mallow cells)
# Experimental: Bone mallow cells were removed from the femur of a BALB/c mouse and suspended in a 10% FCS-RPMI solution. The cell suspension was put into a plastic Petri dish having a diameter of 10 cm and left to stand still (in an incubator, 5% CO2, at 37° C.). Two hours later, only floating cells were recovered, and adhesion cells were removed. 1×10^5 floating cells were cultured for 48 hours together with a 20% culture supernatant of L929 fibroblastoma and the compound of the formula (I) on a microplate with 96 wells by a 10% FCS-RPMI solution (in an incubator, 5% CO2, at 37° C.). Then, 0.5 μCi of ^3 H-TdR was added thereto, and the mixture was further cultured for 4 hours. Then, cells were collected by a cell harvester, and the radioactivity (dpm) of ^3 H-TdR uptaken into the cells, was measured. Such measured amounts of ^3 H-TdR uptaken into the cells were used as indices for the proliferation of bone mallow cells, and the radioactivity at each concentration (from 0.001 to 1,000 μg/ml) of the compound of the formula (I) was compared with the control value where the L929 culture supernatant was added alone, to calculate the IC50 value. In these Tables 12 and 13, the results of the bone mallow cells are shown by (c).
# For the basic procedure of this test, reference was made to Seikagakujikken Koza compiled by Japan Biochemistry Association, Vol. 5, p. 266-270 (published by Tokyo Kagaku Dojin in 1986).
# [4] = tested on: IgM antibody production from murine spleen B cells; test: Effects on the IgM antibody production from murine spleen cells (LPS + IL4); type: cell-based, BALB/c mouse; conditions: Mus musculus, B-cell, 168 h; spleen B cells, LPS 10 μg/ml, IL4 100 U/ml, 7 days, enzyme-immunoassay; read-out: IC50 value, IgM antibody production
# Experimental: as §1, §2, §3
# murine thymocytes = test: Effects on the mitogenic response by murine thymocytes (Con A stimulation, 3H-TdR uptake); type: cell-based, BALB/c murine; conditions: Mus musculus, Thymocyte; BALB/c thymocytes, Con A 5 μg/ml, 48 hours, 3H-TdR uptake; read-out: IC50 value, a (mitogenic response of murine thymocytes)
# Experimental: Using BALB/c murine thymocytes, the effect of the compound of the formula (I) on the mitogenic response of lymphocytes to the stimulation by concanavalin A (hereinafter referred to simply as Con A, Product No. L-1000, manufactured by Vector Laboratories) was studied. Namely, 4×10^5 murine thymocytes were cultured for 48 hours on a microplate with 96 wells in a RPMI1640 solution containing 10% of a fetal bovine serum (hereinafter referred to simply as a 10% FCS-RPMI solution) together with Con A (5 μg/ml) and the compound of the formula (I) (in an incubator, 5% CO2, at 37° C.). Then, 0.5 μCi of ^3 H-thymidine (hereinafter referred to simply as ^3 H-TdR) was added thereto, and the mixture was further cultured for 4 hours. Then, cells were collected by a cell harvester, and the radioactivity (dpm) of ^3 H-TdR uptaken into cells was measured. Such measured amounts of ^3 H-TdR uptaken into the cells were used as indices of the mitogenic response of the murine thymocytes, and the radioactivity at each concentration (from 0.001 to 1,000 μg/ml) of the compound of the formula (I) was compared with the control value treated solely by Con A, to calculate IC50 value. In these Tables 12 and 13, the results of murine thymocytes are shown by (a).
# For the basic procedure of this test, reference was made to Selected methods in cellular immunology, p. 144-146 (translated by Katsuyuki Imai et al., published by Rikogakusha, (1982)).
Structure (SMILES),IC50 [1] [µg/mL],IC50 [2] [µg/mL],IC50 [3] [µg/mL],IC50 (murine bone mallow cells) [µg/mL],IC50 [4] [µg/mL],IC50 (murine thymocytes) [µg/mL]
"CC(C)CC(=O)O[C@H]1C=C[C@H]2CO[C@@H]1O2 [Compound 2, 1,6-anhydro-3,4-dideoxy-2-O-isovaleryl-β-D-threo-hex-3-enopyranose]",560,370,300,> 1000,250,350
C/C=C/C(=O)O[C@H]1C=C[C@H]2CO[C@@H]1O2 [Compound 3],0.0044,0.024,2.4,130,< 0.001,0.0044
Cc1ccccc1C(=O)O[C@H]1C=C[C@H]2CO[C@@H]1O2 [Compound 50],180,< 0.001,< 0.001,380,< 0.001,52
CC(C)(C)NC(=O)O[C@H]1C=C[C@H]2CO[C@@H]1O2 [Compound 25],430,0.0034,0.0015,340,78,0.32
CCCCO[C@H]1C=C[C@H]2CO[C@@H]1O2 [Compound 40],> 1000,0.0026,0.067,> 1000,110,160
"Cc1ccc(S(=O)(=O)O[C@H]2C=C[C@H]3CO[C@@H]2O3)cc1 [Compound 46, 1,6-anhydro-3,4-dideoxy-2-O-(p-toluene)sulfonyl-β-D-threo-hex-3-enopyranose]",22,0.32,0.25,190,0.35,110
"O[C@@H]1C=C[C@H]2CO[C@@H]1O2 [Compound 103, 1,6-anhydro-3,4-dideoxy-β-D-erythro-hex-3-enopyranose]",> 1000,2.1,0.45,> 1000,1.3,780
"CC(=O)O[C@@]1(C)C=C[C@H]2CO[C@@H]1O2 [Compound 32, 2-O-acetyl-1,6-anhydro-3,4-dideoxy-2-C-methyl-β-D-threo-hex-3-enopyranose]",540,2.8,400,540,350,320
O=C(O[C@H]1C=C[C@H]2CO[C@@H]1O2)c1cccnc1 [Compound 15],480,320,220,310,78,130
O=C(O[C@H]1C=C[C@H]2CO[C@@H]1O2)C1CCCCC1 [Compound 4],140,11,100,160,56,450
CCCC#C[C@]1(O)C=C[C@H]2CO[C@@H]1O2 [Compound 31],560,140,1.5,520,10,180
O=C(O[C@H]1C=C[C@H]2CO[C@@H]1O2)c1ccccc1 [Compound 5],130,71,300,150,170,130
O=C(O[C@H]1C=C[C@H]2CO[C@@H]1O2)c1ccc(Cl)cc1 [Compound 16],190,50,41,170,20,91
"CNC(=S)O[C@H]1C=C[C@H]2CO[C@@H]1O2 [Compound 24, 1,6-anhydro-3,4-dideoxy-2-O-methylthiocarbamoyl-β-D-threo-hex-3-enopyranose]",100,0.22,17,620,10,170
S=C(Oc1ccccc1)O[C@H]1C=C[C@H]2CO[C@@H]1O2 [Compound 26],20,4.5,23,200,110,44
CCCCCCCCCCCCCCCCCCCC(=O)O[C@H]1C=C[C@H]2CO[C@@H]1O2 [Compound 20],240,3.2,5.2,400,500,150
O=C(CCCCCBr)O[C@H]1C=C[C@H]2CO[C@@H]1O2 [Compound 13],190,0.32,< 0.001,330,< 0.001,33
